From US20140171358A1, “ANTIMICROBIAL COMPOSITIONS COMPRISING DGLA AND NEOMYCIN SULFATE AND METHODS OF USE THEREOF” (Dignity Sciences Limited, priority 2012, published 2014)
Where two headings read alike, the source gives them in different places. Each block holds one compound with its values, some of them ahead of it.

How the values were obtained:
Type in all cases: cell-based
P. acnes = experiment: agar dilution method: growth index and MIC on P. acnes (single compounds and combinations); conditions: for MIC: Cutibacterium acnes; for growth of P. Acnes with the combination compared with 15-HETrE used alone: in combination with 15-HETrE; for growth of P. Acnes with the combination compared with 15-OHEPA used alone: in combination with 15-OHEPA; for growth of P. Acnes with the combination compared with DGLA used alone: in combination with DGLA
Method: Several compounds including fatty acids such as DGLA, 15-OHEPA, and 15-HETrE were tested to determine their capacity to inhibit the growth of P. acnes. In an exemplary method, an agar dilution method was used to determine the minimum inhibitory concentration (MIC) of each tested compound. Briefly, the agar dilution method involved preparing a series of concentrations of each compound (e.g., nicotinamide, benzoyl peroxide, adapalene, metronidazole, DGLA, 15-OHEPA, and 15-HETrE) in a Reinforced Clostridial Agar (RCA) media that facilitates growth of P. acnes under anaerobic conditions. An inoculum of P. acnes was prepared by incubation of P. acnes for approximately seven days at 35-37° C. to achieve a ≧1.0 OD600 inoculum of P. acnes in RCM broth. A portion of this inoculum was then added to the surface of each plate as a 10 μL spot and incubated at 35-37° C. for 72 hours or more. Growth of P. acnes was then observed and compared to control plates in which no compound has been added, and positive inhibition plates prepared with erythromycin. […] The growth of P. acnes in the presence of nicotinamide, benzoyl peroxide, adapalene, metronidazole, DGLA, 15-OHEPA, and 15-HETrE was determined with varying concentrations of the compound (see, Table 2). Next, the MIC was determined as the concentration at which a marked reduction (+) occurs in the appearance of growth on the test plate (as per Clinical and Laboratory Standards Institute M11-A7). The compounds tested singly in Example 1 were tested in combination with one another to determine the capacity of the combination to inhibit the growth of P. acnes. In an exemplary method, the MIC was determined for each of the combination as described in Example 1. Briefly, test combinations included DGLA with nicotinamide, benzoyl peroxide, adapalene, or metronidazole; 15-HETrE with nicotinamide, benzoyl peroxide, adapalene, or metronidazole; and 15-OHEPA with nicotinamide, benzoyl peroxide, adapalene, or metronidazole. The tables below show the growth of P. acnes in the presence of 0.4 or 1.0 mg/mL DGLA with varying concentrations of nicotinamide, benzoyl peroxide, adapalene, or metronidazole (Table 3); the growth of P. acnes in the presence of 0.01 or 0.05 mg/mL 15-HETrE with varying concentrations of nicotinamide, benzoyl peroxide, adapalene, or metronidazole (Table 5); and the growth of P. acnes in the presence of 0.5 or 0.1 mg/mL 15-OHEPA with varying concentrations of nicotinamide, benzoyl peroxide, adapalene, or metronidazole (Table 7).

A. brasiliensis = experiment: paper disc corrected zone of inhibition (CZOI) on Mueller Hinton agar
Method: (§1) The compounds tested in Example 1 were tested to determine their capacity to inhibit the growth of a variety of Gram-negative bacteria, Gram-positive bactgeria, fungi and yeast. In an exemplary method, Mueller Hinton agar plates were streaked with 500 μL of a 10^5 colony-forming units/mL culture and allowed to dry for at least one minute. A sterile paper disc (6 mm diameter) was then placed in the middle of each plate using sterile forceps. Twenty microliters of a solution of a known concentration of a test compound in filter-sterilized 95% ethanol were pipetted onto each test plate. Two streaked plates served as positive inhibitory controls and contained 6 mm sterile paper discs with standard tetracycline solutions. Two additional plates served as negative inhibition controls and each contained 6 mm sterile paper discs with 20 μL of filter-sterilized 95% ethanol. Two more plates served as positive growth controls and contained no paper disc or added antibacterial agent. The plates were incubated at 32.5±2° C. for 24±4 hours, after which the corrected zone of inhibition (“CZOI”) was determined as follows: For each plate, the length Y2 and width X2 of the test sample (paper disc) and length Y1 and width X1 of the clear zone were measured (FIG. 1). The CZOI was calculated from these values as shown by the equation below: [formula]

S. epidermidis = experiment: as above
Method: as §1

C. albicans = experiment: as above
Method: as §1

E. coli = experiment: as above
Method: as §1

S. aureus = experiment: as above
Method: as §1

C. striatum = experiment: as above
Method: as §1

E. faecalis = experiment: as above
Method: as §1

P. aeroginosa = experiment: as above
Method: as §1

K. pneumoniae = experiment: as above
Method: as §1

[1] = compound alone, read-out: MIC (mg/mL) as per P-11-0007 or P-11-0008 Addendum A
[2] = read-out: MIC (mg/mL) with 0.01 mg/mL 15-HETrE spike
[3] = read-out: MIC (mg/mL) with 0.05 mg/mL 15-OHEPA spike
[4] = with 0.05 mg/mL 15-HETrE (inhibitory concentration), read-out: MIC (mg/mL) with 0.05 mg/mL 15-HETrE spike
[5] = with 0.1 mg/mL 15-OHEPA (inhibitory concentration), read-out: MIC (mg/mL) with 0.1 mg/mL 15-OHEPA spike
[6] = with 0.4 mg/mL dGLA (Sigma), read-out: MIC (mg/mL) with 0.4 mg/mL dGLA spike
[7] = with 1.0 mg/mL dGLA (Cayman), read-out: MIC (mg/mL) with 1.0 mg/mL dGLA spike

Compound: CCC=CCC(O)C=CC=CCC=CCC=CCCCC(=O)O (stereo not drawn) [15-OHEPA, 15-Hydroxy-eicosa-5,8,11,13,17-pentaenoic acid]
- Average CZOI (A. brasiliensis; 0.01 mg/mL): 0.25 mm
- Average CZOI (A. brasiliensis; 0.025 mg/mL): 1.75 mm
- Average CZOI (A. brasiliensis; 0.05 mg/mL): 2 mm
- Average CZOI (A. brasiliensis; 0.075 mg/mL): 3.75 mm
- Average CZOI (A. brasiliensis; 0.1 mg/mL): 2.75 mm
- Lowest Concentration With Observed Inhibition (A. brasiliensis; A. brasiliensis): 0.001 mg/mL
- Most Effective Concentration Observed (A. brasiliensis; A. brasiliensis): 0.075 mg/mL
- Average CZOI (S. epidermidis; 0.01 mg/mL): 1 mm
- Average CZOI (S. epidermidis; 0.025 mg/mL): 2 mm
- Average CZOI (S. epidermidis; 0.05 mg/mL): 2.25 mm
- Average CZOI (S. epidermidis; 0.075 mg/mL): 3 mm
- Average CZOI (S. epidermidis; 0.1 mg/mL): 1.25 mm
- Lowest Concentration With Observed Inhibition (S. epidermidis; S. epidermidis): 0.001 mg/mL
- Most Effective Concentration Observed (S. epidermidis; S. epidermidis): 0.075 mg/mL
- Average CZOI (C. albicans; 0.01 mg/mL): 1 mm
- Average CZOI (C. albicans; 0.025 mg/mL): 1.5 mm
- Average CZOI (C. albicans; 0.05 mg/mL): 2.5 mm
- Average CZOI (C. albicans; 0.075 mg/mL): 2.25 mm
- Average CZOI (C. albicans; 0.1 mg/mL): 1 mm
- Lowest Concentration With Observed Inhibition (C. albicans; C. albicans): 0.001 mg/mL
- Most Effective Concentration Observed (C. albicans; C. albicans): 0.05 mg/mL
- Average CZOI (E. coli; 0.01 mg/mL): 2 mm
- Average CZOI (E. coli; 0.025 mg/mL): 1.25 mm
- Average CZOI (E. coli; 0.05 mg/mL): 1.25 mm
- Average CZOI (E. coli; 0.075 mg/mL): 1.75 mm
- Average CZOI (E. coli; 0.1 mg/mL): 1.5 mm
- Lowest Concentration With Observed Inhibition (E. coli; E. coli): 0.001 mg/mL
- Most Effective Concentration Observed (E. coli; E. coli): 0.001 mg/mL
- Average CZOI (S. aureus; 0.01 mg/mL): 0 mm
- Average CZOI (S. aureus; 0.025 mg/mL): 1 mm
- Average CZOI (S. aureus; 0.05 mg/mL): 1.25 mm
- Average CZOI (S. aureus; 0.075 mg/mL): 2.25 mm
- Average CZOI (S. aureus; 0.1 mg/mL): 2 mm
- Lowest Concentration With Observed Inhibition (S. aureus; S. aureus): 0.025 mg/mL
- Most Effective Concentration Observed (S. aureus; S. aureus): 0.075 mg/mL
- Average CZOI (C. striatum; 0.01 mg/mL): 3.25 mm
- Average CZOI (C. striatum; 0.025 mg/mL): 3 mm
- Average CZOI (C. striatum; 0.05 mg/mL): 3.5 mm
- Average CZOI (C. striatum; 0.075 mg/mL): 2 mm
- Average CZOI (C. striatum; 0.1 mg/mL): 1.5 mm
- Lowest Concentration With Observed Inhibition (C. striatum; C. striatum): 0.001 mg/mL
- Most Effective Concentration Observed (C. striatum; C. striatum): 0.05 mg/mL
- Average CZOI (E. faecalis; 0.01 mg/mL): 2.5 mm
- Average CZOI (E. faecalis; 0.025 mg/mL): 1.5 mm
- Average CZOI (E. faecalis; 0.05 mg/mL): 2.25 mm
- Average CZOI (E. faecalis; 0.075 mg/mL): 1.25 mm
- Average CZOI (E. faecalis; 0.1 mg/mL): 1.5 mm
- Lowest Concentration With Observed Inhibition (E. faecalis; E. faecalis): 0.001 mg/mL
- Most Effective Concentration Observed (E. faecalis; E. faecalis): 0.001 mg/mL
- Average CZOI (P. aeroginosa; 0.01 mg/mL): 1.25 mm
- Average CZOI (P. aeroginosa; 0.025 mg/mL): 1 mm
- Average CZOI (P. aeroginosa; 0.05 mg/mL): 1.5 mm
- Average CZOI (P. aeroginosa; 0.075 mg/mL): 1.75 mm
- Average CZOI (P. aeroginosa; 0.1 mg/mL): 1.5 mm
- Lowest Concentration With Observed Inhibition (P. aeroginosa; P. aeroginosa): 0.001 mg/mL
- Most Effective Concentration Observed (P. aeroginosa; P. aeroginosa): 0.075 mg/mL
- Average CZOI (K. pneumoniae; 0.01 mg/mL): 2.25 mm
- Average CZOI (K. pneumoniae; 0.025 mg/mL): 1.5 mm
- Average CZOI (K. pneumoniae; 0.05 mg/mL): 1 mm
- Average CZOI (K. pneumoniae; 0.075 mg/mL): 1.75 mm
- Average CZOI (K. pneumoniae; 0.1 mg/mL): 2.25 mm
- Lowest Concentration With Observed Inhibition (K. pneumoniae; K. pneumoniae): 0.001 mg/mL
- Most Effective Concentration Observed (K. pneumoniae; K. pneumoniae): 0.001 mg/mL
- effect on growth of P. acnes on its own (P. acnes; 0.05 mg/mL): no effect on its own
- MIC (P. acnes; [1]): 0.05 to 0.075 mg/mL

Compound: COc1ccc(-c2ccc3cc(C(=O)O)ccc3c2)cc1C12CC3CC(CC(C3)C1)C2 [Adapalene]
- MIC (P. acnes; [2]): 0.6 to 0.7 mg/mL
- MIC (P. acnes; [3]): > 0.8 mg/mL
- MIC (P. acnes; [4]): < 0.2 mg/mL
- MIC (P. acnes; [5]): < 0.2 mg/mL
- MIC (P. acnes; [6]): > 0.6 mg/mL
- MIC (P. acnes; [7]): > 0.6 mg/mL
- growth of P. Acnes with the combination compared with 15-OHEPA used alone (P. acnes): did not reduce the growth of P. Acnes below that of 15 OHEPA used alone
- growth of P. Acnes with the combination compared with DGLA used alone (P. acnes): did not reduce the growth of P. Acnes below that of DGLA used alone

Compound: Cc1ncc([N+](=O)[O-])n1CCO [Metronidazole]
- MIC (P. acnes; [2]): > 1 mg/mL
- MIC (P. acnes; [3]): > 1 mg/mL
- MIC (P. acnes; [4]): < 0.2 mg/mL
- MIC (P. acnes; [5]): < 0.2 mg/mL
- MIC (P. acnes; [6]): > 1 mg/mL
- MIC (P. acnes; [7]): > 1 mg/mL
- growth of P. Acnes with the combination compared with 15-HETrE used alone (P. acnes): did not reduce the growth of P. Acnes below that of 15-HETrE used alone
- growth of P. Acnes with the combination compared with 15-OHEPA used alone (P. acnes): did not reduce the growth of P. Acnes below that of 15 OHEPA used alone
- growth of P. Acnes with the combination compared with DGLA used alone (P. acnes): did not reduce the growth of P. Acnes below that of DGLA used alone

Further lines, with some results ahead:

- MIC (P. acnes; [1]): 0.6 to 0.8 mg/mL
- MIC (P. acnes; [2]): 0.6 to 0.8 mg/mL
- MIC (P. acnes; [3]): 0.4 to 0.6 mg/mL
- MIC (P. acnes; [4]): < 0.2 mg/mL
- MIC (P. acnes; [5]): < 0.2 mg/mL
- MIC (P. acnes; [6]): 0.2 to 0.4 mg/mL
- MIC (P. acnes; [7]): 0.2 to 0.4 mg/mL
Compound: O=C(OOC(=O)c1ccccc1)c1ccccc1 [Benzoyl Peroxide]
- growth of P. Acnes with the combination compared with 15-HETrE used alone (P. acnes): did not reduce the growth of P. Acnes below that of 15-HETrE used alone

- MIC (P. acnes; [2]): 10 to 15 mg/mL
- MIC (P. acnes; [3]): 10 to 15 mg/mL
- MIC (P. acnes; [4]): < 1 mg/mL
- MIC (P. acnes; [5]): < 1 mg/mL
- MIC (P. acnes; [6]): 10 to 15 mg/mL
- MIC (P. acnes; [7]): 10 to 15 mg/mL
Compound: NC(=O)c1cccnc1 [Nicotinamide]
- growth of P. Acnes with the combination compared with 15-HETrE used alone (P. acnes): did not reduce the growth of P. Acnes below that of 15-HETrE used alone
- growth of P. Acnes with the combination compared with 15-OHEPA used alone (P. acnes): did not reduce the growth of P. Acnes below that of 15 OHEPA used alone
- growth of P. Acnes with the combination compared with DGLA used alone (P. acnes): did not reduce the growth of P. Acnes below that of DGLA used alone
